Test results published in PubChem BioAssay AID214 (DTP/NCI, 2004).
Where “and” joins values, the source holds several entries; their conditions need not be identical. Equal entries are not always repeated. Inconclusive results are not listed.

Tested on: B6C3F1 mice, colon carcinoma 38 s.c., T/C
Assay: NCI In Vivo Anticancer Drug Screen. Data for tumor model Colon Carcinoma 38 (subcutaneous) in B6C3F1 mice
Settings: vehicle: saline
Procedure: The antitumor activity of compounds was measured in mice bearing transplantable tumors. Survival or tumor size were measured and the results are expressed as the measurement made in the treated group (T) divided by the measurement made in the vehicle treated control group (C). The tumor model used in this assay is Colon Carcinoma 38 (subcutaneous) in B6C3F1 mice

CCN(CC)CCOC(=O)Cc1cccc2c(=O)cc(-c3ccccc3)oc12
T/C (endpoint: median survival time, dose: 3.12 mg/kg/injection, schedule: Q01DX001 (iv), higher = longer survival): 101 % of control
T/C (endpoint: median survival time, dose: 3.12 mg/kg/injection, schedule: Q07DX002 (iv), higher = longer survival): 102 % of control
T/C (endpoint: median survival time, dose: 6.25 mg/kg/injection, schedule: Q01DX001 (iv), higher = longer survival): 102 % of control
T/C (endpoint: median survival time, dose: 6.25 mg/kg/injection, schedule: Q07DX002 (iv), higher = longer survival): 106 % of control
T/C (endpoint: median survival time, dose: 15.82 mg/kg/injection, schedule: Q07DX002 (iv), higher = longer survival): 92 % of control
T/C (endpoint: median survival time, dose: 21.09 mg/kg/injection, schedule: Q01DX001 (iv), higher = longer survival): 101 % of control
T/C (endpoint: median survival time, dose: 21.09 mg/kg/injection, schedule: Q07DX002 (iv), higher = longer survival): 96 % of control
T/C (endpoint: median survival time, dose: 25.0 mg/kg/injection, schedule: Q07DX002 (iv), higher = longer survival): 87 % of control
T/C (endpoint: median survival time, dose: 28.13 mg/kg/injection, schedule: Q01DX001 (iv), higher = longer survival): 100 % of control
T/C (endpoint: median survival time, dose: 28.13 mg/kg/injection, schedule: Q07DX002 (iv), higher = longer survival): 121 % of control
T/C (endpoint: median survival time, dose: 37.5 mg/kg/injection, schedule: Q01DX001 (iv), higher = longer survival): 92 % of control
T/C (endpoint: median survival time, dose: 37.5 mg/kg/injection, schedule: Q07DX002 (iv), higher = longer survival): 110 % of control
T/C (endpoint: median survival time, dose: 50.0 mg/kg/injection, schedule: Q01DX001 (iv), higher = longer survival): 96 % of control
T/C (endpoint: median survival time, dose: 112.5 mg/kg/injection, schedule: Q01DX001 (ip), higher = longer survival): 89 % of control
T/C (endpoint: median survival time, dose: 112.5 mg/kg/injection, schedule: Q07DX002 (ip), higher = longer survival): 90 % of control and 120 % of control
T/C (endpoint: median survival time, dose: 150.0 mg/kg/injection, schedule: Q01DX001 (ip), higher = longer survival): 96 % of control and 99 % of control
T/C (endpoint: median survival time, dose: 150.0 mg/kg/injection, schedule: Q07DX002 (ip), higher = longer survival): 167 % of control and 218 % of control
T/C (endpoint: median survival time, dose: 200.0 mg/kg/injection, schedule: Q07DX002 (ip), higher = longer survival): 220 % of control and 238 % of control
T/C (endpoint: median survival time, dose: 266.7 mg/kg/injection, schedule: Q01DX001 (ip), higher = longer survival): 171 % of control and 176 % of control
T/C (endpoint: median survival time, dose: 266.7 mg/kg/injection, schedule: Q07DX002 (ip), higher = longer survival): 220 % of control and 238 % of control
T/C (endpoint: median survival time, dose: 355.6 mg/kg/injection, schedule: Q01DX001 (ip), higher = longer survival): 220 % of control and 232 % of control
T/C (endpoint: median tumor weight (est.), dose: 21.09 mg/kg/injection, schedule: Q07DX002 (iv), higher = larger tumour): 86 % of control
T/C (endpoint: median tumor weight (est.), dose: 26.7 mg/kg/injection, schedule: Q03HX024 (ip), higher = larger tumour): 115 % of control
T/C (endpoint: median tumor weight (est.), dose: 28.13 mg/kg/injection, schedule: Q01DX001 (iv), higher = larger tumour): 77 % of control and 89 % of control
T/C (endpoint: median tumor weight (est.), dose: 35.6 mg/kg/injection, schedule: Q03HX024 (ip), higher = larger tumour): 155 % of control
T/C (endpoint: median tumor weight (est.), dose: 35.6 mg/kg/injection, schedule: Q06HX016 (ip), higher = larger tumour): 86 % of control
T/C (endpoint: median tumor weight (est.), dose: 37.5 mg/kg/injection, schedule: Q01DX001 (iv), higher = larger tumour): 107 % of control
T/C (endpoint: median tumor weight (est.), dose: 47.5 mg/kg/injection, schedule: Q01DX008 (ip), higher = larger tumour): 79 % of control
T/C (endpoint: median tumor weight (est.), dose: 47.5 mg/kg/injection, schedule: Q03HX006 (ip), higher = larger tumour): 117 % of control
T/C (endpoint: median tumor weight (est.), dose: 47.5 mg/kg/injection, schedule: Q03HX024 (ip), higher = larger tumour): 83 % of control
T/C (endpoint: median tumor weight (est.), dose: 47.5 mg/kg/injection, schedule: Q06HX016 (ip), higher = larger tumour): 75 % of control
T/C (endpoint: median tumor weight (est.), dose: 50.0 mg/kg/injection, schedule: Q01DX001 (iv), higher = larger tumour): 50 % of control
T/C (endpoint: median tumor weight (est.), dose: 63.3 mg/kg/injection, schedule: Q03HX006 (ip), higher = larger tumour): 63 % of control
T/C (endpoint: median tumor weight (est.), dose: 63.3 mg/kg/injection, schedule: Q06HX016 (ip), higher = larger tumour): 93 % of control
T/C (endpoint: median tumor weight (est.), dose: 84.4 mg/kg/injection, schedule: Q01DX008 (ip), higher = larger tumour): 111 % of control
T/C (endpoint: median tumor weight (est.), dose: 84.4 mg/kg/injection, schedule: Q03HX006 (ip), higher = larger tumour): 63 % of control
T/C (endpoint: median tumor weight (est.), dose: 84.4 mg/kg/injection, schedule: Q06HX004 (ip), higher = larger tumour): 75 % of control
T/C (endpoint: median tumor weight (est.), dose: 84.4 mg/kg/injection, schedule: Q06HX016 (ip), higher = larger tumour): 63 % of control
T/C (endpoint: median tumor weight (est.), dose: 84.4 mg/kg/injection, schedule: Q07DX002 (ip), higher = larger tumour): 60 % of control
T/C (endpoint: median tumor weight (est.), dose: 112.5 mg/kg/injection, schedule: Q01DX008 (ip), higher = larger tumour): 73 % of control
T/C (endpoint: median tumor weight (est.), dose: 112.5 mg/kg/injection, schedule: Q03HX006 (ip), higher = larger tumour): 18 % of control
T/C (endpoint: median tumor weight (est.), dose: 112.5 mg/kg/injection, schedule: Q06HX004 (ip), higher = larger tumour): 60 % of control
T/C (endpoint: median tumor weight (est.), dose: 150.0 mg/kg/injection, schedule: Q06HX004 (ip), higher = larger tumour): 54 % of control
T/C (endpoint: median tumor weight (est.), dose: 200.0 mg/kg/injection, schedule: Q01DX001 (ip), higher = larger tumour): 20 % of control and 22 % of control
T/C (endpoint: median tumor weight (est.), dose: 200.0 mg/kg/injection, schedule: Q06HX004 (ip), higher = larger tumour): 9 % of control
T/C (endpoint: median tumor weight (est.), dose: 200.0 mg/kg/injection, schedule: Q07DX002 (ip), higher = larger tumour): 4 % of control and 9 % of control
T/C (endpoint: median tumor weight (est.), dose: 266.7 mg/kg/injection, schedule: Q01DX001 (ip), higher = larger tumour): 7 % of control and 13 % of control
